Source: publication PMC12336229, “Peptide-mimetics derived from leucyl-tRNA synthetase are potential agents for the therapy of mt-tRNA related diseases” (Frontiers in Pharmacology, 2025)

Legend:
m.3243A>G mutant cybrids = experiment: Cell viability in galactose medium (Trypan blue dye exclusion); format: cell-based, human; conditions: 5 µM; 24 h galactose medium; compared with non-treated mutant cells; at least three independent experiments
Description: (§1) Previously established osteosarcoma-derived (143B.TK-) cybrid cell lines from patients, which bear either the m.3243A>G mutation in mt-tRNA^Leu(UUR) or the m.8344A>G mutation in mt-tRNA^Lys and controls ([Perli et al., 2014]; [Perli et al., 2016]; [Perli et al., 2020]) were used.
(§2) Cybrid cells were cultured in Dulbecco’s modified Eagle’s medium (DMEM), supplemented with 4.5 g/L D-glucose, 10% foetal bovine serum (FBS), 2 mM L-glutamine, 50 μg/ML uridine, 100 U/mL penicillin, and […] (referred to as glucose medium) in a humidified atmosphere of 95% air and 5% CO2 at 37°C. For cell viability experiments, cells were grown either in glucose medium or in glucose-free DMEM, supplemented with 5 mM galactose, […], and 10% FBS (referred to as galactose medium). The reason for using the latter medium is that a pathological phenotype can be appreciated in cells growing on galactose, which forces cells to rely on mitochondrial respiration, but not in cells growing on glucose.
(§3) To assess growth capability, cells were harvested and seeded at 30 × 10^4 in 60 mm dishes in glucose medium for 24 h with the addition of one of the compounds. Cells were switched in glucose or galactose and, after 24 h, cell viability was measured by the Trypan blue dye exclusion assay. Cells were harvested with 0.25% trypsin and 0.2% EDTA, washed, suspended in PBS in the presence of Trypan blue solution (Sigma–Aldrich) at 1:1 ratio and counted using a hemocytometer. The number of viable cells in the galactose medium was expressed as a percentage of the number of cells in glucose medium.

[1] = tested on: control cells (WT and L-8344 cybrids); experiment: as above; format: cell-based, human; conditions: WT and L-8344 cells; 24 h galactose medium
Description: as §1, §2, §3

[2] = tested on: m.8344A>G mutant cybrids (H-8344); experiment: as above; format: cell-based, human; conditions: 5 µM; 24 h galactose medium; compared with non-treated mutant cells; at least three independent experiments
Description: as §1, §2, §3

[3] = Plasma stability (UPLC-MS); format: in vitro ADME, human; conditions: 37°C
Description: To assess whether the β32_33 peptide, PMT, PMT-8a and PMT-8b peptide-mimetics are stable in blood, we set up a chromatographic assay able to evaluate compound concentration after incubation in human plasma.
Four different samples from healthy volunteers were used. Blood was drawn by venepuncture in vacutainer containing EDTA as an anticoagulant. Plasma was separated by centrifugation and immediately used for the experiments. Each compound was dissolved in 500 μL plasma at a final concentration of 0.2 mM and split into two aliquots, one of which was immediately analysed to assess the basal compound level (T0); the other was incubated at 37°C under gentle shaking, and the amount of each compound was measured at different time points (i.e., 1.5, 3, 6 and 72 h).
To perform chromatographic analyses, the samples were treated with 3 volumes of acetonitrile containing 1% formic acid and then extracted by using the Ostro™ pass-through sample preparation system to remove proteins and phospholipids. Samples were dried under vacuum, resuspended in 100 μL of 0.1% formic acid containing 5% acetonitrile, and then injected directly onto the chromatographic column.
Chromatographic analyses were performed on a Water Acquity H-Class UPLC system (Waters, Milford, MA, United States), including a quaternary solvent manager (QSM), a sample manager with a flow-through needle system (FTN), a photodiode array detector (PDA) and a single-quadruple mass detector with electrospray ionization source (ACQUITY QDa). Analyses were performed on a reverse phase C18 column (75 mm × 3.2 mm i. d., 2.5 μm particle size). The mobile phase was solvent A, 0.1% formic acid in water, and solvent B, 0.1% formic acid in acetonitrile. The flow rate was 0.5 mL/min, the column temperature was set at 25°C and the elution was performed by linearly increasing the concentration of solvent B up to 70% in 7 min. Mass spectrometric detection was performed in the positive electrospray ionization mode, using nitrogen as the nebulizer gas. Analyses were performed in the Total Ion Current (TIC) mode with a mass range of 100–1200 m/z. The capillary voltage was 0.8 kV, cone voltage 8 V, ion source temperature 120°C and probe temperature 600°C. Quantification was performed by Selected Ion Recording (SIR): at m/z = 917.88, corresponding to the [M+2H]^2+ ion obtained from either β32_33 peptide or PMT; at m/z = 961.42, corresponding to the [M + H] ^+ obtained from PMT-8a; and at m/z = 869.48, corresponding to the [M + H]^+ ion obtained from PMT-8b.

## CC[C@@H](C)[C@@H](NC(=O)[C@@H](CC(C)C)NC(=O)[C@@H](C)NC(=O)[C@H](NC(=O)[C@@H](CCCNC(=N)N)NC(=O)[C@H]1CCCN1C(=O)[C@@H](CO)NC(=O)[C@@H](CC(C)C)NC(=O)[C@@H](Cc1ccccc1)NC(=O)[C@@H](CO)NC(=O)[C@@H](CCCCN)NC(=O)[C@H](N)CCCCN)[C@H](C)O)C(=O)N[C@H](CC(N)=O)C(=O)N[C@H](Cc1ccccc1)C(=O)N[C@H](CC(C)C)C(=O)N[C@@H](C(N)=O)C(C)C [PMT]
m.3243A>G mutant cybrids
  Cell viability (viable cells in galactose as % of glucose medium): significant improvement of cell viability
[1]
  Cell viability of control cells: do not affect
[2]
  Cell viability (viable cells in galactose as % of glucose medium): significant improvement of cell viability
[3]; 72 h, human EDTA plasma from four healthy volunteers, gentle shaking, UPLC-MS (SIR), peak area vs time 0, read-out: Amount of detectable compound after incubation with human plasma
  remaining at 72 h, 0.2 mM: ~25%
[3]; all time points (1.5, 3, 6, 72 h), human plasma, 0.2 mM, UPLC-MS
  Plasma stability compared with β32_33 peptide: significantly higher plasma stability
